Source: US20180289678A1, “PHARMACEUTICAL COMPOSITION, PHARMACEUTICAL DOSAGE FORM, PROCESS FOR THEIR PREPARATION, METHODS FOR TREATING AND USES THEREOF” (Boehringer Ingelheim International GmbH, priority 2009, published 2018)
Read-outs that look alike come from different tables or passages of the source.

Assay: Study .2: multiple rising dose trial in diabetic patients, once daily for 8 days, pharmacokinetic parameters
Format: in vivo, human
Conditions: for Cmax / AUC / Tmax / AUC(0-inf): Study .2, fasted; for AUCτ,ss,norm Max / AUCτ,ss,norm Median / AUCτ,ss,norm Min / AUCτ,ss,norm gMean / Cmax,ss,norm Max / Cmax,ss,norm Median / Cmax,ss,norm Min / Cmax,ss,norm gMean: Study .2, steady state, dose-normalized
Procedure: 5. Pharmacokinetic Parameters
The pharmacokinetic parameters of pharmaceutical compositions and pharmaceutical dosage forms are assessed in healthy volunteer and patient populations. In the studies shown below, the participants fasted on the day of sampling, unless as otherwise stated (see for example study .3). The active substance in the studies below is the compound (I.9), preferably in the crystalline form (I.9X), and the dose of active ingredient is indicated in mg.
For the quantification of plasma concentrations of the active ingredient, 2.7 mL of blood was collected and transferred into an EDTA (ethylendiaminetetraacetic acid)-anticoagulant blood drawing tube. The EDTA-anticoagulated blood samples were centrifuged immediately after collection. Centrifugation lasted for about 10 minutes (at about 2,000×gf to 4,000×gf) at 4-8° C. or within 30 minutes while stored on ice. Concentrations of active substance in EDTA human plasma samples were quantitated using a HPLC/MS/MS method. The assay method comprised a solid phase supported liquid-liquid extraction of human plasma coupled with HPLC/MS/MS determination of the extracted samples. The HPLC/MS/MS assay was validated for the range of 1.11 to 1110 nM in human plasma.
Study .2: Multiple rising dose trial in a diabetic patient population of N=48, once daily administration for 8 days. Patients were administered tablets as described in Example 10 (section Examples of formulations).
AUC0-inf:area under the concentration-time curve of the analyte in plasma over the time interval from 0 extrapolated to infinity.
Cmax: maximum concentration of the analyte in plasma.
Tmax: time from dosing to maximum concentration.
AUCT,SS:area under the concentration-time curve of the analyte in plasma over the time interval from 0 to 24 h at steady-state.
Cmax,ss:maximum concentration of the analyte in plasma at steady state over a uniform dosing interval.
tmax,ss:time from dosing to maximum concentration at steady state.

Q: Which Cmax (25 mg single dose, read-out: Cmax Min) does the source give for `OC[C@H]1O[C@@H](c2ccc(Cl)c(Cc3ccc(O[C@H]4CCOC4)cc3)c2)[C@H](O)[C@@H](O)[C@@H]1O` [Compound (I.9), 1-chloro-4-(β-D-glucopyranos-1-yl)-2-[4-((S)-tetrahydrofuran-3-yloxy)-benzyl]-benzene] here?
A: Its Cmax is 420 nM.

Q: And the “AUCτ,ss,norm Max” value (dose 2.5 mg, plasma)?
A: The value was 271 nmol·h/L/mg.

Q: What about the “AUCτ,ss,norm Median” value (dose 2.5 mg, plasma) of the same compound?
A: The value was 183 nmol·h/L/mg.

Q: And the “AUCτ,ss,norm Min” value (dose 2.5 mg, plasma)?
A: The value was 113 nmol·h/L/mg.

Q: What about the “AUCτ,ss,norm gMean” value (dose 2.5 mg, plasma) of the same compound?
A: The value was 184 nmol·h/L/mg.

Q: And the “Cmax,ss,norm Max” value (dose 2.5 mg, plasma)?
A: The value was 39 nmol/L/mg.

Q: What about the “Cmax,ss,norm Median” value (dose 2.5 mg, plasma) of the same compound?
A: Its value is 29 nmol/L/mg.

Q: And the “Cmax,ss,norm Min” value (dose 2.5 mg, plasma)?
A: Its value is 16 nmol/L/mg.

Q: And the “Cmax,ss,norm gMean” value (dose 2.5 mg, plasma)?
A: The value was 27 nmol/L/mg.

Q: And the “AUCτ,ss,norm Max” value (dose 10 mg, plasma)?
A: Its value is 258 nmol·h/L/mg.

Q: And the “AUCτ,ss,norm Median” value (dose 10 mg, plasma)?
A: The value was 194 nmol·h/L/mg.

Q: What about the “AUCτ,ss,norm Min” value (dose 10 mg, plasma) of the same compound?
A: Its value is 164 nmol·h/L/mg.

Q: And the “AUCτ,ss,norm gMean” value (dose 10 mg, plasma)?
A: The value was 200 nmol·h/L/mg.

Q: And the “Cmax,ss,norm Max” value (dose 10 mg, plasma)?
A: The value was 48 nmol/L/mg.

Q: What about the “Cmax,ss,norm Median” value (dose 10 mg, plasma) of the same compound?
A: The value was 28 nmol/L/mg.

Q: What about the “Cmax,ss,norm Min” value (dose 10 mg, plasma) of the same compound?
A: Its value is 17 nmol/L/mg.

Q: What about the “Cmax,ss,norm gMean” value (dose 10 mg, plasma) of the same compound?
A: The value was 27 nmol/L/mg.

Q: What about the “AUCτ,ss,norm Max” value (dose 25 mg, plasma) of the same compound?
A: The value was 266 nmol·h/L/mg.

Q: And the “AUCτ,ss,norm Median” value (dose 25 mg, plasma)?
A: Its value is 182 nmol·h/L/mg.

Q: What about the “AUCτ,ss,norm Min” value (dose 25 mg, plasma) of the same compound?
A: The value was 138 nmol·h/L/mg.

Q: And the “AUCτ,ss,norm gMean” value (dose 25 mg, plasma)?
A: The value was 196 nmol·h/L/mg.

Q: And the “Cmax,ss,norm Max” value (dose 25 mg, plasma)?
A: Its value is 32 nmol/L/mg.

Q: What about the “Cmax,ss,norm Median” value (dose 25 mg, plasma) of the same compound?
A: Its value is 24 nmol/L/mg.

Q: What about the “Cmax,ss,norm Min” value (dose 25 mg, plasma) of the same compound?
A: The value was 18 nmol/L/mg.

Q: And the “Cmax,ss,norm gMean” value (dose 25 mg, plasma)?
A: Its value is 25 nmol/L/mg.

Q: And the AUC (human, plasma, oral, 2.5 mg, 2.5 mg once daily, steady state, read-out: AUCτ,ss Median)?
A: The AUC was 0.458 µM·h.

Q: What about the AUC (human, plasma, oral, 2.5 mg, 2.5 mg once daily, steady state, read-out: AUCτ,ss gMean) of the same compound?
A: The AUC was 0.46 µM·h.

Q: What about the Cmax (human, plasma, oral, 2.5 mg, 2.5 mg once daily, steady state, read-out: Cmax,ss Median) of the same compound?
A: Its Cmax is 72 nM.

Q: And the Cmax (human, plasma, oral, 2.5 mg, 2.5 mg once daily, steady state, read-out: Cmax,ss gMean)?
A: Its Cmax is 66.6 nM.

Q: And the Tmax (human, plasma, oral, 2.5 mg, 2.5 mg once daily, steady state, read-out: tmax,ss Mean)?
A: Its Tmax is 1.33 h.

Q: What about the Tmax (human, plasma, oral, 2.5 mg, 2.5 mg once daily, steady state, read-out: tmax,ss g Mean) of the same compound?
A: Its Tmax is 1.28 h.

Q: And the AUC(0-inf) (human, plasma, oral, 2.5 mg, 2.5 mg single dose, read-out: AUC0-inf Mean)?
A: The AUC(0-inf) was 0.476 µM·h.

Q: What about the AUC(0-inf) (human, plasma, oral, 2.5 mg, 2.5 mg single dose, read-out: AUC0-inf Median) of the same compound?
A: The AUC(0-inf) was 0.501 µM·h.

Q: And the AUC(0-inf) (human, plasma, oral, 2.5 mg, 2.5 mg single dose, read-out: AUC0-inf gMean)?
A: Its AUC(0-inf) is 0.468 µM·h.

Q: What about the Cmax (human, plasma, oral, 2.5 mg, 2.5 mg single dose, read-out: Cmax Median) of the same compound?
A: The Cmax was 62.6 nM.

Q: What about the Cmax (human, plasma, oral, 2.5 mg, 2.5 mg single dose, read-out: Cmax gMean) of the same compound?
A: Its Cmax is 61.3 nM.

Q: And the Tmax (human, plasma, oral, 2.5 mg, 2.5 mg single dose, read-out: tmax Mean)?
A: The Tmax was 1.41 h.

Q: And the Tmax (human, plasma, oral, 2.5 mg, 2.5 mg single dose, read-out: tmax Median)?
A: The Tmax was 1.5 h.

Q: What about the Tmax (human, plasma, oral, 2.5 mg, 2.5 mg single dose, read-out: tmax gMean) of the same compound?
A: The Tmax was 1.37 h.

Q: What about the AUC (human, plasma, oral, 10 mg, 10 mg once daily, steady state, read-out: AUCτ,ss Median) of the same compound?
A: The AUC was 1.94 µM·h.

Q: And the AUC (human, plasma, oral, 10 mg, 10 mg once daily, steady state, read-out: AUCτ,ss gMean)?
A: The AUC was 2 µM·h.

Q: And the Cmax (human, plasma, oral, 10 mg, 10 mg once daily, steady state, read-out: Cmax,ss Median)?
A: Its Cmax is 279 nM.

Q: What about the Cmax (human, plasma, oral, 10 mg, 10 mg once daily, steady state, read-out: Cmax,ss gMean) of the same compound?
A: The Cmax was 272 nM.

Q: And the Tmax (human, plasma, oral, 10 mg, 10 mg once daily, steady state, read-out: tmax,ss Mean)?
A: The Tmax was 1.43 h.

Q: And the Tmax (human, plasma, oral, 10 mg, 10 mg once daily, steady state, read-out: tmax,ss Median)?
A: Its Tmax is 1.5 h.

Q: And the Tmax (human, plasma, oral, 10 mg, 10 mg once daily, steady state, read-out: tmax,ss g Mean)?
A: The Tmax was 1.4 h.

Q: What about the AUC(0-inf) (human, plasma, oral, 10 mg, 10 mg single dose, read-out: AUC0-inf Mean) of the same compound?
A: The AUC(0-inf) was 1.91 µM·h.

Q: What about the AUC(0-inf) (human, plasma, oral, 10 mg, 10 mg single dose, read-out: AUC0-inf Median) of the same compound?
A: Its AUC(0-inf) is 1.83 µM·h.

Q: What about the AUC(0-inf) (human, plasma, oral, 10 mg, 10 mg single dose, read-out: AUC0-inf gMean) of the same compound?
A: The AUC(0-inf) was 1.89 µM·h.

Q: What about the Cmax (human, plasma, oral, 10 mg, 10 mg single dose, read-out: Cmax Median) of the same compound?
A: Its Cmax is 233 nM.

Q: What about the Cmax (human, plasma, oral, 10 mg, 10 mg single dose, read-out: Cmax gMean) of the same compound?
A: The Cmax was 240 nM.

Q: What about the Tmax (human, plasma, oral, 10 mg, 10 mg single dose, read-out: tmax Mean) of the same compound?
A: The Tmax was 1.5 h.

Q: What about the Tmax (human, plasma, oral, 10 mg, 10 mg single dose, read-out: tmax gMean) of the same compound?
A: Its Tmax is 1.48 h.

Q: And the AUC (human, plasma, oral, 25 mg, 25 mg once daily, steady state, read-out: AUCτ,ss Median)?
A: The AUC was 4.56 µM·h.

Q: What about the AUC (human, plasma, oral, 25 mg, 25 mg once daily, steady state, read-out: AUCτ,ss gMean) of the same compound?
A: Its AUC is 4.89 µM·h.

Q: What about the Cmax (human, plasma, oral, 25 mg, 25 mg once daily, steady state, read-out: Cmax,ss Median) of the same compound?
A: The Cmax was 603 nM.

Q: What about the Cmax (human, plasma, oral, 25 mg, 25 mg once daily, steady state, read-out: Cmax,ss gMean) of the same compound?
A: The Cmax was 622 nM.

Q: What about the Tmax (human, plasma, oral, 25 mg, 25 mg once daily, steady state, read-out: tmax,ss Mean) of the same compound?
A: Its Tmax is 2.26 h.

Q: What about the Tmax (human, plasma, oral, 25 mg, 25 mg once daily, steady state, read-out: tmax,ss g Mean) of the same compound?
A: Its Tmax is 1.97 h.

Q: And the AUC(0-inf) (human, plasma, oral, 25 mg, 25 mg single dose, read-out: AUC0-inf Mean)?
A: Its AUC(0-inf) is 4.9 µM·h.

Q: What about the AUC(0-inf) (human, plasma, oral, 25 mg, 25 mg single dose, read-out: AUC0-inf Median) of the same compound?
A: Its AUC(0-inf) is 4.64 µM·h.

Q: And the AUC(0-inf) (human, plasma, oral, 25 mg, 25 mg single dose, read-out: AUC0-inf gMean)?
A: Its AUC(0-inf) is 4.78 µM·h.

Q: What about the Cmax (human, plasma, oral, 25 mg, 25 mg single dose, read-out: Cmax Median) of the same compound?
A: The Cmax was 569 nM.

Q: What about the Cmax (human, plasma, oral, 25 mg, 25 mg single dose, read-out: Cmax gMean) of the same compound?
A: The Cmax was 592 nM.

Q: What about the Tmax (human, plasma, oral, 25 mg, 25 mg single dose, read-out: tmax Mean) of the same compound?
A: Its Tmax is 1.72 h.

Q: What about the Tmax (human, plasma, oral, 25 mg, 25 mg single dose, read-out: tmax Median) of the same compound?
A: The Tmax was 1.5 h.

Q: What about the Tmax (human, plasma, oral, 25 mg, 25 mg single dose, read-out: tmax gMean) of the same compound?
A: Its Tmax is 1.6 h.
